Experimental data published in patent EP4667463A1, “DOMIDE MOLECULAR GLUE DERIVATIVE AND USE THEREOF” (CSPC Megalith Biopharmaceutical Co., Ltd., priority 2023, dated 2024).
pIC50: −log10 of the molar value. Like-named read-outs stand apart in the source and are kept apart here.

Assays:
[1] = Metabolic stability in liver microsomes; conditions: Rat liver microsomes, after 60 min of incubation
Experimental: (§2) The final concentration of the substrate in the incubation system was 1 µM, and the incubation time was 60 min. Sampling was performed at 0 min, 5 min, 15 min, 30 min, and 60 min. The reaction was stopped with glacial acetonitrile containing an internal standard (testosterone-d3 at a concentration of 10 ng/mL). Verapamil was used as a positive control. […] The natural logarithm of the remaining percentage was subjected to linear fitting with time to determine the elimination rate constant (k).

in vitro [2] = conditions: human, liver microsomes
Experimental: as §2

Romas = test: In vitro anti-tumor activity of molecular glue compounds, CellTiter-Lumi cell viability assay; type: cell-based; conditions: Romas cells, 96 h incubation; read-out: Cell inhibitory activity (IC50 values) Romas
Experimental: (§1) Different tumor cells were all commercially available and used for evaluating the anti-tumor inhibitory activity of the compounds of the present disclosure. Various tumor cells were cultured until the cell confluency reached 80%-90%, with cell viability above 90% as determined by trypan blue exclusion. Then, the cells were plated. Specifically, after cell density optimization, 100 µL of each of the cell suspensions of HL-60 and SK-BR-3 cells (cell density: 3000 cells/well), Romas cells (cell density: 6000 cells/well), NCI-H929 cells (cell density: 4000 cells/well), and NCI-H82 cells (cell density: 5000 cells/well) was plated in a BeyoGold™ ultra-low attachment black clear-bottom 96-well plate (Cat. No.: FULA965-24pcs), and the plate was incubated overnight. The next day, after the adherent cells were adhered to the wall and suspension cells requiring aggregation were aggregated, 50 µL of culture medium was aspirated from each well of the 96-well plate. Then, the compounds diluted with the corresponding culture media were added. Specifically, the compounds were serially diluted at a 5-fold gradient starting from the highest concentration of 1 µM, with a final DMSO concentration of 1%o, and the test compounds were then added to the cell culture plate. The plate was incubated in an incubator at 37 °C with 5% carbon dioxide for 96 h. Before measurement, the CellTiter-Lumi™ luminescent cell viability assay reagent was equilibrated to room temperature in the dark. Then, 50 µL of the CellTiter-Lumi™ (Cat. No.: C0065XL) cell viability assay reagent was added to each well of the 96-well plate. The plate was shaken in the dark on a shaker at 300 rpm for 10 min to ensure complete cell lysis. After the reaction was completed, the luminescence was measured on a multi-mode microplate reader. The cell inhibition rate was determined according to the luminescence. Then, a cell viability curve was generated by Graphpad Prism 8.0, and the IC50 values were calculated. The compounds of the present disclosure were tested for activity by the method described above. Table 1. Cell inhibitory activity (IC50 values)

NCI-H929 = test: as above; type: cell-based; conditions: Homo sapiens; NCI-H929 cells, 96 h incubation; read-out: Cell inhibitory activity (IC50 values) NCI-H929
Experimental: as §1

SK-BR-3 = test: as above; type: cell-based; conditions: Homo sapiens, SK-BR-3 cells
Experimental: as §1

NCI-H82 = test: as above; type: cell-based; conditions: Homo sapiens; NCI-H82 cells, 96 h incubation; read-out: Cell inhibitory activity (IC50 values) NCI-H82
Experimental: as §1

HL-60 = test: as above; type: cell-based; conditions: Homo sapiens; HL-60 cells, 96 h incubation; read-out: Cell inhibitory activity (IC50 values) HL-60
Experimental: as §1

in vitro [3] = conditions: monkey, liver microsomes
Experimental: as §2

[4] = Metabolic stability in liver microsomes; conditions: Mouse liver microsomes, after 60 min of incubation
Experimental: as §2

[5] = Metabolic stability in liver microsomes; conditions: Monkey liver microsomes, after 60 min of incubation
Experimental: as §2

in vitro [6] = conditions: rat, liver microsomes
GSPT1 protein = target: T1, GSPT1 protein (Homo sapiens, UniProt P15170+Q96SW2); test: GSPT1 protein degradation, Nano-Glo HiBiT assay in HiBiT-GSPT1 HEK293T cells; type: cell-based; conditions: 24 h
T1 construct: An HiBiT protein tag was added to the N-terminus of the endogenous GSPT1 protein of HEK293T cells by CRISPR gene editing technology; endogenous in cells; host or cells: HEK293T (CRISPR knock-in HiBiT-GSPT1 cell strain)
T1 sequence (P15170 whole entry): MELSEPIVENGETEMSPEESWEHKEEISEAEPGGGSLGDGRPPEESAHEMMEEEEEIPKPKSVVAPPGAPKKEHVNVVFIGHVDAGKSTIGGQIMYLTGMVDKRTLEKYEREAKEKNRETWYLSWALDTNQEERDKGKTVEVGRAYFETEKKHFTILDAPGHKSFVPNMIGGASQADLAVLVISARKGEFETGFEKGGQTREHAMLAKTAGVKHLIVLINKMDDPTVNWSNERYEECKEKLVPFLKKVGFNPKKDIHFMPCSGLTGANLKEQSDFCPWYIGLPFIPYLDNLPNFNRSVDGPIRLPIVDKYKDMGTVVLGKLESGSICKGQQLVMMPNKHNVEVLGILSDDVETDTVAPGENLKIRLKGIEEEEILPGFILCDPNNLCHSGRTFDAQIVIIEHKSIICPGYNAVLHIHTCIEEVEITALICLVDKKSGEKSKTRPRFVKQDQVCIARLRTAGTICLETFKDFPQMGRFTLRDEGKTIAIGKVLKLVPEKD
T1 sequence (Q96SW2 whole entry): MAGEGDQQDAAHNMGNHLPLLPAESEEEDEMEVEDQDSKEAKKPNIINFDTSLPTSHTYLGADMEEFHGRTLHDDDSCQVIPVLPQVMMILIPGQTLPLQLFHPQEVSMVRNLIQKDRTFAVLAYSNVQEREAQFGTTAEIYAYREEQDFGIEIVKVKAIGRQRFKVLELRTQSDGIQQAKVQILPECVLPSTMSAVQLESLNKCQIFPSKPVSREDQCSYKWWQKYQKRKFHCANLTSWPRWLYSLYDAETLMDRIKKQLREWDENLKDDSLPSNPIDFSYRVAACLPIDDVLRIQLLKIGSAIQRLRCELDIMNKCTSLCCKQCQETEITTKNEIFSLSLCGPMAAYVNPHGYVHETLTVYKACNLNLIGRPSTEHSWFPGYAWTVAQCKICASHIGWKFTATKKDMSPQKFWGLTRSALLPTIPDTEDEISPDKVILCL
T1 sequence (Q16531 whole entry partner): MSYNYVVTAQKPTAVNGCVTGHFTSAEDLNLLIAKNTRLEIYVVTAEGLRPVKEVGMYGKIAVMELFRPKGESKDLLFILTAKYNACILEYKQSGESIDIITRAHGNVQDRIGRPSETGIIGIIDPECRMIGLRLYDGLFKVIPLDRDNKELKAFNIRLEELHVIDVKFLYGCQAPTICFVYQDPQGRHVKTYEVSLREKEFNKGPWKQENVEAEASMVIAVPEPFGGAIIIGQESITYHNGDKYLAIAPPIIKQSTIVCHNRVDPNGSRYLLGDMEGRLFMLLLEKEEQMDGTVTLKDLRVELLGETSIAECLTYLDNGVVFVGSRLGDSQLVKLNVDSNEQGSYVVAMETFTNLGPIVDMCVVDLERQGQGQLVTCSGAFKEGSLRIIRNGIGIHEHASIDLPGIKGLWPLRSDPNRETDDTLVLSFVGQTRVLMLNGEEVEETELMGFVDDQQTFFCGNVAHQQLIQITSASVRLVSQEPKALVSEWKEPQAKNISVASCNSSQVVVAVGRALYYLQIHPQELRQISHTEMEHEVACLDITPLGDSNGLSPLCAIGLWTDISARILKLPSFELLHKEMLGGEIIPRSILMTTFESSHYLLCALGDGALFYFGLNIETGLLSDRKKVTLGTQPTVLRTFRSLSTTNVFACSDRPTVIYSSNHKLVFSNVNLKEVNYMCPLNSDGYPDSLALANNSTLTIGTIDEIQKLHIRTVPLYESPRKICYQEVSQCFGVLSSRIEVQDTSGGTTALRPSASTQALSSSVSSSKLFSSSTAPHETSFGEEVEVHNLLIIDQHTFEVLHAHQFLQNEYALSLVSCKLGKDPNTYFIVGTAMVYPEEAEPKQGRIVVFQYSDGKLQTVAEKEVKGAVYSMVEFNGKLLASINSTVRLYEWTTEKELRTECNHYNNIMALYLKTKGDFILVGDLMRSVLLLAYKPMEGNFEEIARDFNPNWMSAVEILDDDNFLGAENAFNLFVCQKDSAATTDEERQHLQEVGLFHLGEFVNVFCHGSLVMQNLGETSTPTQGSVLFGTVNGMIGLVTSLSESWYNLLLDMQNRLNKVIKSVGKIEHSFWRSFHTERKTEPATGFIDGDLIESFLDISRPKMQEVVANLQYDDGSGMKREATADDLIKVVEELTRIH
Experimental: This experiment was performed to evaluate the targeting property of the compounds. An HiBiT protein tag was added to the N-terminus of the endogenous GSPT1 protein of HEK293T cells by CRISPR gene editing technology, so as to construct a HiBiT-GSPT1 HEK293T stably transfected cell strain. HiBiT-GSPT1 HEK293T cells were cultured in DMEM containing 10% FBS and 1% PenStrep. When the cell confluency reached 80%-90%, the cells were digested with trypsin, pipetted into single cells, and resuspended in a corresponding culture medium to form a cell suspension. The cells were counted using Cell Countess (NanoEnTek, #Cat. EVE-MC2), and the cell viability was determined by trypan blue exclusion to ensure that the cell viability was above 90%. The cells were plated in a 384-well plate (Corning, #Cat. 3764) at 10,000 cells/40 µL of cell suspension per well, and cultured in an incubator at 37 °C with 5% CO2 overnight. The next day, the test compounds were added to the 384-well plate under conditions of 30 µM highest concentration, 5-fold serial dilution, and 1‰ DMSO. The plate was incubated in the incubator at 37 °C with 5% CO2 for another 24 h. Before measurement, the Nano-Glo HiBiT reagent was equilibrated to room temperature, the LgBiT protein was diluted with the Nano-Glo HiBiT Lytic buffer according to a dilution ratio of 1:100, and the Nano-Glo@HiBiT Lytic substrate was diluted to an appropriate volume according to a ratio of 1:50. After the cell culture plate was equilibrated at room temperature for 10 min, 40 µL of Nano-Glo HiBiT Lytic assay reagent was added to each well. The plate was shaken on a microplate shaker at a rotation speed of 300 rpm for 3 min in the dark. After the reaction was completed, the luminescencevalues were read on BMG PHERASTAR FS (BMG LRBTECH, Cat. No.: PHERAstar FSX), and the DC50 values were calculated using GraphPad Prism 8.0. Table 2. GSPT1 protein degradation

in vitro [7] = conditions: mouse, liver microsomes
Experimental: as §2

[8] = Metabolic stability in liver microsomes; conditions: Human liver microsomes, after 60 min of incubation
Experimental: as §2

For O=C1CCC(N2Cc3cc(CNC(=O)Nc4ccc(CCCOC5CCCNC5)c(Cl)c4)ccc3C2=O)C(=O)N1 (stereo not shown) [Compound B19], the “Parent drug remaining %” value [1] was 88.1%, the CLint scaled at 1 µM (in vitro [2]) was 5.8 mL/min/kg and the half-life at 1 µM (in vitro [2]) was 5 h. The pIC50 (Romas) was > 8.00, the pIC50 (NCI-H929) was > 8.00 and the pIC50 (SK-BR-3; 96 h incubation, read-out: Cell inhibitory activity (IC50 values) SK-BR-3) was > 8.00. For the same compound, the pIC50 (SK-BR-3; read-out: SK-BR-3 IC50) was 8.44, the pIC50 (NCI-H82) was 7.30 to 8.00 and the pIC50 (HL-60) was > 8.00. For the same compound, the CLint scaled at 1 µM (in vitro [3]) was 11.3 mL/min/kg, the half-life at 1 µM (in vitro [3]) was 3 h and the “Parent drug remaining %” value [4] was 92.8%. The “Parent drug remaining %” value [5] was 77.7%, the CLint scaled at 1 µM (in vitro [6]) was 6.55 mL/min/kg and the half-life at 1 µM (in vitro [6]) was 6.32 h. The DC50 (GSPT1 protein) was 66.2 nM, the CLint scaled at 1 µM (in vitro [7]) was 17 mL/min/kg and the half-life at 1 µM (in vitro [7]) was 5.48 h. For the same compound, the “Parent drug remaining %” value [8] was 80.5%.
